Experimental data taken from ChEMBL document CHEMBL1138469, “Structural basis for inhibitor specificity in human poly(ADP-ribose) polymerase-3” (J Med Chem, 2009).
Calls of active or inactive are those of the source. No cut-off for these calls is given here.

Columns and labels:
[1] = target: T1, Poly [ADP-ribose] polymerase 1 (Homo sapiens, UniProt P09874); test: Inhibition of human PARP1
[2] = target: T1, Poly [ADP-ribose] polymerase 1
Description: Binding affinity to human PARP1 by isothermal titration colorimetry

[3] = target: T2, Protein mono-ADP-ribosyltransferase PARP3 (Homo sapiens) (UniProt Q9Y6F1); test: Inhibition of human PARP3 auto-ADP ribosylation by Western blotting
T2 sequence (whole entry): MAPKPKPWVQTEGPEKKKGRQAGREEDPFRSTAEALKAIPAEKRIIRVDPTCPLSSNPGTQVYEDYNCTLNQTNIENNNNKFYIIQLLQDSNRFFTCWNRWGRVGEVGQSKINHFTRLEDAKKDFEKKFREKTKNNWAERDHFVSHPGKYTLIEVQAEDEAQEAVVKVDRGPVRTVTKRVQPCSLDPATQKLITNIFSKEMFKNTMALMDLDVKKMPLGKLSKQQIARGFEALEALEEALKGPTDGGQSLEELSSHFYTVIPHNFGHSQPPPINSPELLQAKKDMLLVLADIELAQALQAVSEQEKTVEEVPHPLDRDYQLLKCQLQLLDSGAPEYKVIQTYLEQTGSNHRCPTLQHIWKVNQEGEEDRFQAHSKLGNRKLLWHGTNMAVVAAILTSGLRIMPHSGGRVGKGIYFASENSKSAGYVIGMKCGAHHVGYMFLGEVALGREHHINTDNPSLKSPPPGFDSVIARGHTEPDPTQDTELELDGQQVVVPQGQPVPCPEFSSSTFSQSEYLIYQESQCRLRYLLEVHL

[4] = target: T3, Protein mono-ADP-ribosyltransferase PARP3 (Homo sapiens, UniProt Q9Y6F1); test: Binding affinity to human PARP3 PARP domain by isothermal titration […]
T3 sequence (Q9Y6F1 whole entry): T2 sequence (whole entry)

T1 sequence (P09874 whole entry): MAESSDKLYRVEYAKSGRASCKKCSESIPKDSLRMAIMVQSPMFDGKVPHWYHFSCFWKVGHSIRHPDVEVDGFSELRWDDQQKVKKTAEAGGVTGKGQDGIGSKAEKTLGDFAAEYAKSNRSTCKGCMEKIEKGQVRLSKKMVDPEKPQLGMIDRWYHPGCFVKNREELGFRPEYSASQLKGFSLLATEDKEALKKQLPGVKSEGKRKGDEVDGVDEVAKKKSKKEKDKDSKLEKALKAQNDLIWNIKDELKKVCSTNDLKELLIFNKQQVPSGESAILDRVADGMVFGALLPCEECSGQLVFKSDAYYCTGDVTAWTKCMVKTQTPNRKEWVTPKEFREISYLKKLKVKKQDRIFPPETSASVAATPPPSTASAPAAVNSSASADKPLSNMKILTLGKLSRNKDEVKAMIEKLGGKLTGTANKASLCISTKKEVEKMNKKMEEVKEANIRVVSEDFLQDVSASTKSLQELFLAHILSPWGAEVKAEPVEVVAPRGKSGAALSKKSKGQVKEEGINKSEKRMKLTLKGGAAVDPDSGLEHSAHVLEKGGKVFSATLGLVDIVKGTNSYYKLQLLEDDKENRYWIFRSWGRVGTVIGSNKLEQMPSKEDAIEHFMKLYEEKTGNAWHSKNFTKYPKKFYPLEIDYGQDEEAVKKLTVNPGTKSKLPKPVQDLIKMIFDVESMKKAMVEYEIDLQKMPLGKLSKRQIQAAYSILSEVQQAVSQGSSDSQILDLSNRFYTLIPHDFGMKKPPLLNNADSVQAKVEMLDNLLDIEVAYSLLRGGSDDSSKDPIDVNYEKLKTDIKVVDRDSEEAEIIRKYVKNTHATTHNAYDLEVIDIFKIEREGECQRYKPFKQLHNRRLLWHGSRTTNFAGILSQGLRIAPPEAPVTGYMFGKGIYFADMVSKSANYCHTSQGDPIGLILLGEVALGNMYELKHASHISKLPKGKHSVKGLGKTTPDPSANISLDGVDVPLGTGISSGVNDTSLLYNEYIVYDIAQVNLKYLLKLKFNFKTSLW

Structure (SMILES) | IC50 [1] [nM] | Kd [2] [nM] | Activity [3] | Kd [4] [nM]
O=C(c1cc(Cc2n[nH]c(=O)c3ccccc23)ccc1F)N1CCCNCC1 | 3.4 | 19 | Active | 
Nc1cccc(C(=O)O)c1 [3-AMINOBENZOIC ACID] |  |  |  | > 2000
